Experimental data: patent US20240092784A1, “CONDENSED HETEROCYCLIC COMPOUND” (NISSAN CHEMICAL CORPORATION, priority 2020, published 2024)
Counter-ions that a name gives are not always drawn.

Molecular target: human SPR (Homo sapiens (Human), UniProt P35270)
Assay: Evaluation Example 2: Measurement of human SPR inhibitory activity (seven concentrations, sepiapterin absorbance at 420 nm)
Assay type: biochemical
Details: Evaluation Example 2, seven concentrations 0.14 nM to 100 nM, 240 minutes at room temperature, read-out: IC50
Summary of the method: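 Reactions ran 240 min at room temperature in 100 mM Tris-HCl pH 7.5 with 0.01% BSA. They contained tag-cleaved, E. coli-expressed full-length human SPR (diluted to 150 ng/mL), seven compound concentrations from 0.14 to 100 nM, and sepiapterin/NADPH added as a 120 μM/160 μM solution. Inhibition was calculated from sepiapterin absorbance at 420 nm.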

Sequence of human SPR (P35270 whole entry): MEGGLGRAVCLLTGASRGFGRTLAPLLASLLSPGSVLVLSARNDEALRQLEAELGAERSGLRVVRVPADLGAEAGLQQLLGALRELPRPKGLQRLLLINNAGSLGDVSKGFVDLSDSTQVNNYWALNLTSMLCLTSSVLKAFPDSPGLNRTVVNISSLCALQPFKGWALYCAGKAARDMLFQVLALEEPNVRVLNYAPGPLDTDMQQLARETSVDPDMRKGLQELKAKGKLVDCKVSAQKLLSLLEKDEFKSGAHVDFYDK

In the case of `CNc1ccncc1-c1cc2n(CC(C)(C)C)c(=O)c(C(=O)NC3CC3)c(O)n2n1` [Synthesis Example 308, N-Cyclopropyl-7-hydroxy-2-(4-(methylamino)pyridin-3-yl)-4-neopentyl-5-oxo-4,5-dihydropyrazolo[1,5-a]pyrimidine-6-carboxamide], the IC50 is reported as 3.6 nM.
Compound `CNc1ncccc1-c1cc2n(CC(C)(C)C)c(=O)c(C(=O)NC3CC3)c(O)n2n1` [Synthesis Example 309, N-Cyclopropyl-7-hydroxy-2-(2-(methylamino)pyridin-3-yl)-4-neopentyl-5-oxo-4,5-dihydropyrazolo[1,5-a]pyrimidine-6-carboxamide] has an IC50 of 22.9 nM.
In the case of `Cn1cc(-c2cc3n(CC(C)(C)C)c(=O)c(C(=O)NC4CC4)c(O)n3n2)c(C(N)=O)n1` [Synthesis Example 310, 2-(3-Carbamoyl-1-methyl-1H-pyrazol-4-yl)-N-cyclopropyl-7-hydroxy-4-neopentyl-5-oxo-4,5-dihydropyrazolo[1,5-a]pyrimidine-6-carboxamide], the IC50 is reported as 2.47 nM.
In the case of `CC(C)(C)Cn1c(=O)c(C(=O)NC2CC2)c(O)n2nc(-c3[nH]ncc3C(=O)N3CCOCC3)cc12` [Synthesis Example 311, N-Cyclopropyl-7-hydroxy-2-(4-(morpholine-4-carbonyl)-1H-pyrazol-5-yl)-4-neopentyl-5-oxo-4,5-dihydropyrazolo[1,5-a]pyrimidine-6-carboxamide], the IC50 is reported as 1.21 nM.
Work on `CC(C)(C)Cn1c(=O)c(C(=O)NC2CC2)c(O)n2nc(-c3c[nH]nc3C(N)=O)cc12` [Synthesis Example 312, 2-(3-Carbamoyl-1H-pyrazol-4-yl)-N-cyclopropyl-7-hydroxy-4-neopentyl-5-oxo-4,5-dihydropyrazolo[1,5-a]pyrimidine-6-carboxamide] yielded an IC50 of 1.3 nM.
`CC(C)(C)Cn1c(=O)c(C(=O)NC2CC2)c(O)n2nc(-c3[nH]ncc3C(=O)N3CCC(F)(F)CC3)cc12` [Synthesis Example 313, N-Cyclopropyl-2-(4-(4,4-difluoropiperidine-1-carbonyl)-1H-pyrazol-5-yl)-7-hydroxy-4-neopentyl-5-oxo-4,5-dihydropyrazolo[1,5-a]pyrimidine-6-carboxamide hydrochloride] was tested, and the IC50 was 1.15 nM.
Compound `CN(C)C(=O)c1cn[nH]c1-c1cc2n(CC(C)(C)C)c(=O)c(C(=O)NC3CC3)c(O)n2n1` [Synthesis Example 314, N-Cyclopropyl-2-(4-(dimethylcarbamoyl)-1H-pyrazol-5-yl)-7-hydroxy-4-neopentyl-5-oxo-4,5-dihydropyrazolo[1,5-a]pyrimidine-6-carboxamide hydrochloride] has an IC50 of 0.93 nM.
Compound `CC(C)(C)Cn1c(=O)c(C(=O)NC2CC2)c(O)n2nc(-c3[nH]ncc3C(=O)NCC3CCOCC3)cc12` [Synthesis Example 315, N-Cyclopropyl-7-hydroxy-4-neopentyl-5-oxo-2-(4-(((tetrahydro-2H-pyran-4-yl)methyl)carbamoyl)-1H-pyrazol-5-yl)-4,5-dihydropyrazolo[1,5-a]pyrimidine-6-carboxamide hydrochloride] has an IC50 of 1.11 nM.
For `CC(C)(C)Cn1c(=O)c(C(=O)NC2CC2)c(O)n2nc(-c3[nH]ncc3C(=O)N3CCC(F)(F)C3)cc12` [Synthesis Example 316, N-Cyclopropyl-2-(4-(3,3-difluoropyrrolidine-1-carbonyl)-1H-pyrazol-5-yl)-7-hydroxy-4-neopentyl-5-oxo-4,5-dihydropyrazolo[1,5-a]pyrimidine-6-carboxamide hydrochloride], the IC50 was 0.9 nM.
`CC(C)(C)Cn1c(=O)c(C(=O)NC2CC2)c(O)n2nc(-c3c[nH]nc3N)cc12` [Synthesis Example 317, 2-(3-Amino-1H-pyrazol-4-yl)-N-cyclopropyl-7-hydroxy-4-neopentyl-5-oxo-4,5-dihydropyrazolo[1,5-a]pyrimidine-6-carboxamide] gave an IC50 of 1.34 nM.
`CC(C)Cn1c(=O)c(C(=O)NC2CC2)c(O)n2nc(O)cc12` [Synthesis Example 318, N-Cyclopropyl-2,7-dihydroxy-4-isobutyl-5-oxo-4,5-dihydropyrazolo[1,5-a]pyrimidine-6-carboxamide] was tested, and the IC50 was 1.43 nM.
In the case of `Cc1cc2n(CC(C)C)c(=O)c(C(=O)NC3CC3)c(O)n2n1` [Synthesis Example 319, N-Cyclopropyl-7-hydroxy-4-isobutyl-2-methyl-5-oxo-4,5-dihydropyrazolo[1,5-a]pyrimidine-6-carboxamide], the IC50 is reported as 3.16 nM.
In the case of `Cc1cc2n(CC(C)(C)C)c(=O)c(C(=O)NC3CC3)c(O)n2n1` [Synthesis Example 320, N-Cyclopropyl-7-hydroxy-2-methyl-4-neopentyl-5-oxo-4,5-dihydropyrazolo[1,5-a]pyrimidine-6-carboxamide], the IC50 is reported as 1.69 nM.
Compound `COC(C)(C)Cn1c(=O)c(C(=O)NC2CC2)c(O)n2nc(Nc3cnccn3)cc12` [Synthesis Example 321, N-Cyclopropyl-7-hydroxy-4-(2-methoxy-2-methylpropyl)-5-oxo-2-(pyrazin-2-ylamino)-4,5-dihydropyrazolo[1,5-a]pyrimidine-6-carboxamide] has an IC50 of 0.72 nM.
Compound `CC(C)(C)Cn1c(=O)c(C(=O)NC2CC2)c(O)n2nc(Nc3cnc(F)cn3)cc12` [Synthesis Example 322, N-Cyclopropyl-2-((5-fluoropyrazin-2-yl)amino)-7-hydroxy-4-neopentyl-5-oxo-4,5-dihydropyrazolo[1,5-a]pyrimidine-6-carboxamide] has an IC50 of 0.98 nM.
For `CC(C)(C)Cn1c(=O)c(C(=O)NC2CC2)c(O)n2nc(Nc3cnc(C#N)cn3)cc12` [Synthesis Example 323, 2-((5-Cyanopyrazin-2-yl)amino)-N-cyclopropyl-7-hydroxy-4-neopentyl-5-oxo-4,5-dihydropyrazolo[1,5-a]pyrimidine-6-carboxamide], the IC50 was 1.2 nM.
Compound `CC(C)(C)Cn1c(=O)c(C(=O)NC2CC2)c(O)n2nc(Nc3cncc(C#N)n3)cc12` [Synthesis Example 324, 2-((6-Cyanopyrazin-2-yl)amino)-N-cyclopropyl-7-hydroxy-4-neopentyl-5-oxo-4,5-dihydropyrazolo[1,5-a]pyrimidine-6-carboxamide] has an IC50 of 1.61 nM.
`CC(C)(C)Cn1c(=O)c(C(=O)NC2CC2)c(O)n2nc(Nc3ccnc(C#N)n3)cc12` [Synthesis Example 325, 2-((2-Cyanopyrimidin-4-yl)amino)-N-cyclopropyl-7-hydroxy-4-neopentyl-5-oxo-4,5-dihydropyrazolo[1,5-a]pyrimidine-6-carboxamide] gave an IC50 of 1.45 nM.
`C[C@H](Nc1cc2n(CC(C)(C)C)c(=O)c(C(=O)NC3CC3)c(O)n2n1)c1ccccn1` [Synthesis Example 326, (S)-N-Cyclopropyl-7-hydroxy-4-neopentyl-5-oxo-2-((1-(pyridin-2-yl)ethyl)amino)-4,5-dihydropyrazolo[1,5-a]pyrimidine-6-carboxamide] was tested, and the IC50 was 1.96 nM.
`C[C@@H](Nc1cc2n(CC(C)(C)C)c(=O)c(C(=O)NC3CC3)c(O)n2n1)c1ccccn1` [Synthesis Example 327, (R)-N-Cyclopropyl-7-hydroxy-4-neopentyl-5-oxo-2-((1-(pyridin-2-yl)ethyl)amino)-4,5-dihydropyrazolo[1,5-a]pyrimidine-6-carboxamide] was tested, and the IC50 was 2.39 nM.
Work on `Cc1nccnc1Nc1cc2n(CC(C)(C)C)c(=O)c(C(=O)NC3CC3)c(O)n2n1` [Synthesis Example 328, N-Cyclopropyl-7-hydroxy-2-((3-methylpyrazin-2-yl)amino)-4-neopentyl-5-oxo-4,5-dihydropyrazolo[1,5-a]pyrimidine-6-carboxamide] yielded an IC50 of 1.56 nM.
`CC(C)(C)Cn1c(=O)c(C(=O)NC2CC2)c(O)n2nc(Nc3cc(C#N)ncn3)cc12` [Synthesis Example 329, 2-((6-Cyanopyrimidin-4-yl)amino)-N-cyclopropyl-7-hydroxy-4-neopentyl-5-oxo-4,5-dihydropyrazolo[1,5-a]pyrimidine-6-carboxamide] gave an IC50 of 1.69 nM.
`Cc1cncc(Nc2cc3n(CC(C)(C)C)c(=O)c(C(=O)NC4CC4)c(O)n3n2)n1` [Synthesis Example 330, N-Cyclopropyl-7-hydroxy-2-((6-methylpyrazin-2-yl)amino)-4-neopentyl-5-oxo-4,5-dihydropyrazolo[1,5-a]pyrimidine-6-carboxamide] was tested, and the IC50 was 1.83 nM.
Work on `CC(C)(C)Cn1c(=O)c(C(=O)NC2CC2)c(O)n2nc(Nc3cncc(C(F)(F)F)n3)cc12` [Synthesis Example 331, N-Cyclopropyl-7-hydroxy-4-neopentyl-5-oxo-2-((6-(trifluoromethyl)pyrazin-2-yl)amino)-4,5-dihydropyrazolo[1,5-a]pyrimidine-6-carboxamide] yielded an IC50 of 1.71 nM.
Compound `COc1nccc(Nc2cc3n(CC(C)(C)C)c(=O)c(C(=O)NC4CC4)c(O)n3n2)n1` [Synthesis Example 332, N-Cyclopropyl-7-hydroxy-2-((2-methoxypyrimidin-4-yl)amino)-4-neopentyl-5-oxo-4,5-dihydropyrazolo[1,5-a]pyrimidine-6-carboxamide] has an IC50 of 2.06 nM.
`Cc1cnc(Nc2cc3n(CC(C)(C)C)c(=O)c(C(=O)NC4CC4)c(O)n3n2)cn1` [Synthesis Example 333, N-Cyclopropyl-7-hydroxy-2-((5-methylpyrazin-2-yl)amino)-4-neopentyl-5-oxo-4,5-dihydropyrazolo[1,5-a]pyrimidine-6-carboxamide] gave an IC50 of 1.86 nM.
Compound `Cc1nccc(Nc2cc3n(CC(C)(C)C)c(=O)c(C(=O)NC4CC4)c(O)n3n2)n1` [Synthesis Example 334, N-Cyclopropyl-7-hydroxy-2-((2-methylpyrimidin-4-yl)amino)-4-neopentyl-5-oxo-4,5-dihydropyrazolo[1,5-a]pyrimidine-6-carboxamide] has an IC50 of 1 nM.
`CC(C)(C)Cn1c(=O)c(C(=O)NC2CC2)c(O)n2nc(Nc3cnc(C(=O)N4CCOCC4)cn3)cc12` [Synthesis Example 335, N-Cyclopropyl-7-hydroxy-2-((5-(morpholine-4-carbonyl)pyrazin-2-yl)amino)-4-neopentyl-5-oxo-4,5-dihydropyrazolo[1,5-a]pyrimidine-6-carboxamide] gave an IC50 of 0.73 nM.
